# Assay results from US7105513B2, “Acylated, heteroaryl-condensed cycloalkenylamines and their use as pharmaceuticals” (Sanofi-Avertis Deutschland GmbH, priority 2002, dated 2006).
# Counter-ions that a name gives are not always drawn.
# Tested on: eNOS promoter
# Experiment: Activation of eNOS transcription (eNOS promoter-luciferase reporter gene assay)
# Format: cell-based
# Details: Homo sapiens, Endothelial cell, 18 h, human endothelial cell line stably transfected with eNOS promoter-firefly luciferase construct; 18 h incubation; EC50 determined graphically; read-out: EC50 of transcription induction ratio (TIR)
# Experimental: Determination of Activation of eNOS Transcription
# Activation of eNOS transcription was determined as described in detail in Li et al., “Activation of protein kinase C alpha and/or epsilon enhances transcription of the human endothelial nitric oxide synthase gene”, Mol. Pharmacol. 53 (1998) 630, the content of which is incorporated herein by reference.
# Briefly, a 3.5 kB long fragment 5′ of the starting codon of the eNOS gene was cloned, sequenced and cloned in firefly luciferase expression plasmids to monitor activation of the eNOS promoter by reporter gene activity. A human endothelial cell line stable transfected and expressing this promoter-reporter construct was used for compound testing. Cells were incubated for 18 h with compounds.
# All compounds were dissolved in sterile dimethyl sulfoxide (DMSO). A final concentration of 0.5% DMSO in complete medium was allowed. Induction of reporter gene expression in these cells was measured using a standard luciferase assay system (Promega, Cat. No E150) according to the manufacturer's instructions. Luciferase induction in cells incubated with compounds were compared to those incubated with solvent alone. The ratio of both activities (transcription induction ratio, TIR) was plotted as a function of compound concentration,. Typically, TIR values started at low concentrations at a ratio of 1, indicating no compound effect, and extended up to a maximum TIR value TIR(max) which indicates the increase of the eNOS transcription. EC50 values of transcription induction ratios as a function of compound concentration were determined graphically.
row,EC50,SMILES
1,3.3 µM,"Cc1ccc(C(=O)NC2Cc3cccnc3C2)c(C)n1 (single isomer, unassigned; enantiomer 1) [Example 5, N-(6,7-Dihydro-5H-[1]pyrindin-6-yl)-2,6-dimethylnicotinamide (enantiomer 1)]"
2,12 µM,"COc1ccc(C(=O)NC2Cc3cccnc3C2)cn1 (single isomer, unassigned; enantiomer 1) [Example 6, N-(6,7-Dihydro-5H-[1]pyrindin-6-yl)-6-methoxynicotinamide (enantiomer 1)]"
3,23 µM,"Cc1nc2ccc(C(=O)NC3Cc4cccnc4C3)cc2[nH]1 (single isomer, unassigned; enantiomer 1) [Example 7, 2-Methyl-3H-benzimidazole-5-carboxylic acid (6,7-dihydro-5H-[1]pyrindin-6-yl)amide (enantiomer 1)]"
4,30 µM,"COCc1ccc(C(=O)NC2Cc3cccnc3C2)cn1 (single isomer, unassigned; enantiomer 1) [Example 8, N-(6,7-Dihydro-5H-[1]pyrindin-6-yl)-6-methoxymethyinicotinamide (enantiomer 1)]"
5,0.93 µM,"O=C(NC1Cc2cccnc2C1)c1ccc2c(c1)OC(F)(F)O2 (single isomer, unassigned; enantiomer 1) [Example 9, 2,2-Difluorobenzo[1,3]dioxole-5-carboxylic acid (6,7-dihydro-5H-[1]pyrindin-6-yl)amide (enantiomer 1), trifluoroacetic acid salt]"
6,0.8 µM,"O=C(NC1Cc2cccnc2C1)c1ccc(Cl)cc1 (single isomer, unassigned; enantiomer 1) [Example 10, 4-Chloro-N-(6,7-dihydro-5H-[1]pyrindin-6-yl)benzamide (enantiomer 1), trifluoroacetic acid salt]"
7,0.064 µM,"Cc1ccc(C(=O)NC2CCCc3cccnc3C2)c(C)c1 (stereo not drawn) [Example 11, 2,4-Dimethyl-N-(6,7,8,9-tetrahydro-5H-cyclohepta[b]pyridin-8-yl)benzamide]"
8,11 µM,"Cc1cnc(C(=O)NC2Cc3ccsc3C2)c(N)n1 (stereo not drawn) [Example 12, 3-Amino-5-methylpyrazine-2-carboxylic acid (5,6-dihydro4H-cyclopenta[b]thiophen-5-yl)amide]"
9,0.62 µM,"Cc1ccc(C(=O)NC2Cc3ccsc3C2)c(C)n1 (stereo not drawn) [Example 13, N-(5,6-Dihydro-4H-cyclopenta[b]thiophen-5-yl)-2,6-dimethylnicotinamide, trifluoroacetic acid salt]"
10,2.4 µM,"COc1ccc(C(=O)NC2Cc3ccsc3C2)cn1 (stereo not drawn) [Example 14, N-(5,6-Dihydro-4 H-cyclopenta[b]thiophen-5-yl)-6-methoxynicotinamide]"
11,3.1 µM,"Cc1nc2ccc(C(=O)NC3Cc4ccsc4C3)cc2[nH]1 (stereo not drawn) [Example 15, 2-Methyl-3H-benzimidazole-5-carboxylic acid (5,6-dihydro-4H-cyclopenta[b]thiophen-5-yl)amide, trifluoroacetic acid salt]"
12,0.2 µM,"Cc1c(C(=O)NC2Cc3ccsc3C2)cnn1-c1ccccc1 (stereo not drawn) [Example 16, 5-Methyl-1-phenyl-1H-pyrazole-4-carboxylic acid (5,6-dihydro-4H-cyclopenta[b]thiophen-5-yl)amide]"
13,0.35 µM,"O=C(NC1Cc2ccsc2C1)c1cnn(-c2ccccc2)c1C(F)(F)F (stereo not drawn) [Example 17, 1-Phenyl-5-trifluoromethyl-1H-pyrazole-4-carboxylic acid (5,6-dihydro-4H-cyclopenta[b]thiophen-5-yl)amide]"
14,3.3 µM,"Cc1cc(C(=O)NC2Cc3ccsc3C2)c(C)n1Cc1ccncc1 (stereo not drawn) [Example 18, 2,5-Dimethyl-1-pyridin-4-ylmethyl-1H-pyrrole-3-carboxylic acid (5,6-dihydro-4H-cyclopenta[b]thiophen-5-yl)amide, trifluoroacetic acid salt]"
15,20 µM,"Cc1nc(C)c(C(=O)NC2Cc3ccsc3C2)s1 (stereo not drawn) [Example 19, 2,4-Dimethylthiazole-5-carboxylic acid (5,6-dihydro-4H-cyclopenta[b]thiophen-5-yl)amide]"
16,9.8 µM,"Cc1nn(C)cc1C(=O)NC1Cc2ccsc2C1 (stereo not drawn) [Example 20, 1,3-Dimethyl-1H-pyrazole-4-carboxylic acid (5,6-dihydro-4H-cyclopenta[b]thiophen-5-yl)amide]"
17,4.8 µM,"Nc1ncccc1C(=O)NC1Cc2ccsc2C1 (stereo not drawn) [Example 21, 2-Amino-N-(5,6-dihydro-4H-cyclopenta[b]thiophen-5-yl)nicotinamide, trifluoroacetic acid salt]"
18,1.6 µM,"Cc1ccc(C(=O)NC2Cc3ccsc3C2)cn1 (stereo not drawn) [Example 22, N-(5,6-Dihydro-4H-cyclopenta[b]thiophen-5-yl)-6-methylnicotinamide, trifluoroacetic acid salt]"
19,0.8 µM,"Cc1ccc(C(=O)NC2Cc3ccsc3C2)c(Cl)n1 (stereo not drawn) [Example 23, 2-Chloro-N-(5,6-dihydro-4H-cyclopenta[b]thiophen-5-yl)-6-methylnicotinamide]"
20,125 µM,"COCc1ccc(C(=O)NC2Cc3ccsc3C2)cn1 (stereo not drawn) [Example 24, N-(5,6-Dihydro4H-cyclopenta[b]thiophen-5-yl)-6-methoxymethylnicotinamide, trifluoroacetic acid salt]"
21,18 µM,"Nc1nccnc1C(=O)NC1Cc2ccsc2C1 (stereo not drawn) [Example 25, 3-Aminopyrazine-2-carboxylic acid (5,6-dihydro-4H-cyclopenta[b]thiophen-5-yl)amide]"
22,1.5 µM,"O=C(NC1Cc2ccsc2C1)c1cccc(Cl)c1Cl (stereo not drawn) [Example 26, 2,3-Dichloro-N-(5,6-dihydro-4H-cyclopenta[b]thiophen-5-yl)benzamide]"
23,< 0.1 µM,"Cc1ccc(C(=O)NC2Cc3ccsc3C2)c(C)c1 (stereo not drawn) [Example 27, N-(5,6-Dihydro-4H-cyclopenta[b]thiophen-5-yl)-2,4-dimethylbenzamide]"
24,0.76 µM,"O=C(NC1Cc2ccsc2C1)c1ccc(F)cc1F (stereo not drawn) [Example 28, N-(5,6-Dihydro-4H-cyclopenta[b]thiophen-5-yl)-2,4-difluorobenzamide]"
25,2.3 µM,"CS(=O)(=O)Nc1cccc(C(=O)NC2Cc3ccsc3C2)c1 (stereo not drawn) [Example 29, N-(5,6-Dihydro-4H-cyclopenta[b]thiophen-5-yl)-3-methylsulfonylaminobenzamide]"
26,11 µM,"O=C(NC1Cc2ccsc2C1)c1ccc(N2CCOCC2)nc1 (stereo not drawn) [Example 30, N-(5,6-Dihydro-4H-cyclopenta[b]thiophen-5-yl)-6-(morpholin-4-yl)nicotinamide, trifluoroacetic acid salt]"
27,3.3 µM,"O=C(NC1Cc2ccsc2C1)c1cccc(N2CCOCC2)c1 (stereo not drawn) [Example 31, N-(5,6-Dihydro-4H-cyclopenta[b]thiophen-5-yl)-3-(morpholin-4-yl)benzamide]"
